Laboratory results taken from ChEMBL document CHEMBL1221257, “Hit-to-lead optimization of a series of carboxamides of ethyl 2-amino-4-phenylthiazole-5-carboxylates as novel adenosine A2A receptor antagonists” (Bioorg Med Chem Lett, 2010).

Experiments:
Adenosine receptor A1 = target: T1, Adenosine receptor A1 (Homo sapiens, UniProt P30542); experiment: Displacement of [3H]DPCPX from human adenosine A1 receptor expressed in CHO cells by liquid scintillation counting; format: cell-based
T1 sequence (P30542 whole entry): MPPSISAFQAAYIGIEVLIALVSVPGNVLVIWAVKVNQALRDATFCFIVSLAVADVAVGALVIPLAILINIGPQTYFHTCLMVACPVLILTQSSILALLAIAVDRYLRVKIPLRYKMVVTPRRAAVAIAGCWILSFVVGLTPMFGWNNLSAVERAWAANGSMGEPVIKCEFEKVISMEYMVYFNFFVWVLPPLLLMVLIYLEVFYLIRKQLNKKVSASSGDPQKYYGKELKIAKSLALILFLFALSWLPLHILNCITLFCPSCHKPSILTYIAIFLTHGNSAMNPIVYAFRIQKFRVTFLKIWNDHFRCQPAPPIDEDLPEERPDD

Adenosine receptor A2a [1] = target: T2, Adenosine receptor A2a (Homo sapiens, UniProt P29274)
T2 sequence (P29274 whole entry): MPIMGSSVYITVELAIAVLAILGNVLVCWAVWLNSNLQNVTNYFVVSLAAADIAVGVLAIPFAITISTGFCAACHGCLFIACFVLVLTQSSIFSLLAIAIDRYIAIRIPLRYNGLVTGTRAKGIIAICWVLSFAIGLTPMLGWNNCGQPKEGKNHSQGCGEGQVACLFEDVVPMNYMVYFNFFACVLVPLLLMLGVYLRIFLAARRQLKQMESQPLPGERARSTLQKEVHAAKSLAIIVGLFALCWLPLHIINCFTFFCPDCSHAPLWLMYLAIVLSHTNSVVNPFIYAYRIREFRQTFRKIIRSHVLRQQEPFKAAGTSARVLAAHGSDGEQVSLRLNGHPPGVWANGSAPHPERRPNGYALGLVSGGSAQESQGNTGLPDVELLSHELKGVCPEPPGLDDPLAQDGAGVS
Description: Displacement of [3H]ZM241385 from human adenosine A2A receptor expressed in buculovirus system by liquid scintillation counting

Mus musculus [2] = experiment: Reversal of haloperidol-induced hypolocomotion in po dosed NMRI mouse model of Parkinson's disease measured for 20 mins; format: functional
[3] = target: T3, Adenosine receptor A1 (Homo sapiens) (UniProt P30542); experiment: Displacement of [3H]DPCPX from human adenosine A1 receptor expressed in CHO cells at 2000 nM by liquid scintillation counting; format: cell-based
T3 sequence (whole entry): T1 sequence (P30542 whole entry)

Adenosine receptor A2a [4] = target: T2, Adenosine receptor A2a; experiment: Displacement of [3H]ZM241385 from human adenosine A2A receptor expressed in buculovirus system at 10 uM by liquid scintillation counting
Mus musculus [5] = experiment: In-vivo displacement of [3H]SCH442416 from adenosine A2A receptor in po dosed NMRI mouse by liquid scintillation counting; format: functional
[6] = target: T3, Adenosine receptor A1 (Homo sapiens); experiment: Displacement of [3H]DPCPX from human adenosine A1 receptor expressed in CHO cells at 10 uM by liquid scintillation counting; format: cell-based

| Structure (SMILES) | Ki (Adenosine receptor A1) | Ki (Adenosine receptor A2a [1]) | also measured |
| --- | --- | --- | --- |
| Cc1noc(-c2sc(NC(=O)c3ccccc3)nc2-c2ccccc2)n1 | 180 nM | 190 nM |  |
| CCNC(=O)c1sc(NC(=O)c2ccco2)nc1-c1ccccc1 |  |  | Activity (Adenosine receptor A2a [4]): 37% |
| O=C(Nc1nc(-c2ccccc2)c(-c2ncon2)s1)C1CC1 | 310 nM | 120 nM |  |
| N#Cc1sc(NC(=O)c2ccco2)nc1-c1ccccc1 |  | 290 nM |  |
| Cc1nc(-c2sc(NC(=O)C3CC3)nc2-c2ccccc2)no1 | 150 nM | 28 nM | Activity (Mus musculus [2]): Dose-dependent effect; ED50 (Mus musculus [2]): 7 mg/kg; ED50 (Mus musculus [5]): 5.8 mg/kg |
| CCOC(=O)c1sc(NC(=O)c2ccco2)nc1-c1ccccc1 | 95 nM | 13 nM |  |
| Cc1noc(-c2sc(NC(=O)C3CC3)nc2-c2ccccc2)n1 | 41 nM | 12 nM |  |
| CC(=O)Nc1nc(-c2ccccc2)c(-c2noc(C)n2)s1 |  | 190 nM | Activity [6]: 76% |
| O=C(Nc1nc(-c2ccccc2)c(-c2ncon2)s1)c1ccco1 | 230 nM | 410 nM |  |
| Cc1noc(-c2sc(NC(=O)c3ccco3)nc2-c2ccccc2)n1 | 270 nM | 200 nM |  |
| CCn1c(=O)c2c(nc(/C=C/c3ccc(OC)c(OC)c3)n2C)n(CC)c1=O [ISTRADEFYLLINE] | 3000 nM |  | ED50 (Mus musculus [2]): 0.13 mg/kg |
| CC(C)CC(=O)Nc1nc(-c2ccccc2)c(-c2ncon2)s1 | 77 nM | 340 nM |  |
| O=C(Nc1nc(-c2ccccc2)c(-c2ncon2)s1)c1ccccc1 | 300 nM | 330 nM |  |
| CCn1nnc(-c2sc(NC(=O)Cc3ccccc3)nc2-c2ccccc2)n1 | 1200 nM | 460 nM |  |
| Cc1nc(-c2sc(NC(=O)c3ccco3)nc2-c2ccccc2)no1 | 780 nM | 700 nM |  |
| CCOCc1sc(NC(=O)c2ccco2)nc1-c1ccccc1 | 92 nM | 190 nM |  |
| O=C(Cc1ccccc1)Nc1nc(-c2ccccc2)c(-c2ncon2)s1 | 1700 nM | 710 nM |  |
| CCn1nnc(-c2sc(NC(=O)c3ccccc3)nc2-c2ccccc2)n1 |  | 220 nM | Activity [6]: 65% |
| CCS(=O)(=O)c1sc(NC(=O)c2ccco2)nc1-c1ccccc1 |  |  | Activity (Adenosine receptor A2a [4]): 25% |
| O=C(Nc1nc(-c2ccccc2)c(C(=O)O)s1)c1ccco1 |  |  | Activity (Adenosine receptor A2a [4]): 0% |
| Cc1nc(-c2sc(NC(=O)Cc3ccccc3)nc2-c2ccccc2)no1 | 260 nM | 25 nM |  |

Continued, in another order:

| Ki (Adenosine receptor A1) | Ki (Adenosine receptor A2a [1]) | Structure (SMILES) | also measured |
| --- | --- | --- | --- |
| 82 nM | 33 nM | Cc1nc(-c2sc(NC(=O)CC(C)C)nc2-c2ccccc2)no1 |  |
| > 1000 nM | 5 nM | COCCOc1ccc(N2CCN(CCn3ncc4c3nc(N)n3nc(-c5ccco5)nc43)CC2)cc1 [PRELADENANT] | ED50 (Mus musculus [2]): 0.4 mg/kg; Activity [3]: 30% |
| 1600 nM | 45 nM | CCn1nnc(-c2sc(NC(=O)Cc3ccc(OC)c(OC)c3)nc2-c2ccccc2)n1 |  |
| 340 nM | 57 nM | Cc1noc(-c2sc(NC(=O)Cc3ccccc3)nc2-c2ccccc2)n1 |  |
| 210 nM | 77 nM | CCn1nnc(-c2sc(NC(=O)C3CC3)nc2-c2ccccc2)n1 |  |
| 650 nM | 94 nM | CCn1nnc(-c2sc(NC(=O)c3ccco3)nc2-c2ccccc2)n1 |  |
| 27 nM | 48 nM | Cc1noc(-c2sc(NC(=O)CC(C)C)nc2-c2ccccc2)n1 |  |
| 370 nM | 110 nM | CC(=O)Nc1nc(-c2ccccc2)c(-c2nc(C)no2)s1 |  |
| 90 nM | 62 nM | CCCC(=O)c1sc(NC(=O)c2ccco2)nc1-c1ccccc1 |  |
|  | 83 nM | Cc1nc(-c2sc(NC(=O)c3ccccc3)nc2-c2ccccc2)no1 | Activity [6]: 45% |
